Assay results as given in patent US20250270159A1, “1-(CYCLOBUTANEMETHYLIDENE)-2, 4, 5-TRIMETHOXYBENZENE COMPOUND AND PREPARATION METHOD AND USE THEREOF” (CHENGDU XINRUI TAIKANG TECHNOLOGY CO., LTD., priority 2023, published 2025).

Columns and labels:
[1] = tested on: ischemic stroke induced by the filament technique in rats; assay: Long-term ischemic stroke (MCAO), neurological deficit score (mNSS); type: in vivo
Procedure: (§1) The rats were randomly divided into a sham operation group (Sham group, given a blank emulsion with a volume equal to that of the high-dose CTMB group), a model group (Vehicle group, given a blank emulsion with a volume equal to that of the high-dose CTMB group), a low-dose CTMB group (CTMB-L group, 10 mg/kg), a high-dose CTMB group (CTMB-H group, 20 mg/kg), and an edaravone dexborneol injection concentrated solution group (EDB group, commercially available, 3 mg/kg). 10 rats were included in each group, which were administered by intraperitoneal injection. It should be noted that in the experiment, the mode of administration for rats was intraperitoneal injection, and a ratio of the effective dose of CTMB, the active ingredient in the emulsion injection, to the unit mass of the human body was within a range of 0.2 mg-4.0 mg/kg, which referred to the ratio of the effective dose of CTMB, the active ingredient in the emulsion injection, to the unit mass of the human body during intravenous infusion, which was extrapolated from the effective dose of the rats. Considering the different bioavailability, peak concentration, and peak time of the drug due to different species and different modes of administration, the effective dose of the active ingredient CTMB in the emulsion injection to the unit mass of human body was finally determined to be 0.2 mg-4.0 mg/kg through conversion.
(§2) The rats were fasted for 12 h before procedure, and the rats were anesthetized with 10% chloral hydrate (350 mg/kg, i.p.). The rats were fixed in the supine position, and the body temperature was maintained at about 37° C. For neck preparation, a median neck incision was made, the muscle and fascia were separated along the inner edge of the sternocleidomastoid muscle to expose the right side, the common carotid artery (CCA), external carotid artery (ECA), and internal carotid artery (ICA) were separated bluntly, and the lines were disposed of proximally in the CCA proximal end, ICA, and ECA for backup. The CCA proximal end and ECA were ligatured, and an arterial clip was used to temporarily close the ICA, then a small hole was poked at a position of CCA having about 4 mm from the bifurcation with a needle. The filament was inserted into the ICA through the CCA, the arterial clipped on ICA was loosened, and the filament was slowly advanced. When the mark on the filament reached the bifurcation and a slight resistance was felt, the thin wire at ICA was tightened, and saline was used to clean the wound and then suture was performed. The sham procedure was the same as the experimental group except that no filament was inserted. After anesthesia, the rats were raised normally.
Experimental materials, groups (n=10-15), modeling manner, and scoring criteria were the same as the acute phase of treatment. After 2 h of modeling by the filament technique, the drugs were immediately administered according to the grouped administration plan, and thereafter the drugs continued to be administered once a day for 14 days, and modified mNSS score was performed on days 1, 4, 7, and 14.

[2] = tested on: ischemic stroke induced by the filament technique in rats; assay: Long-term ischemic stroke (MCAO), bonding (adhesive tape) test; type: in vivo; conditions: for Time for rats to perceive tape, Day 1 / Time for rats to perceive tape, Day 4 / Time for rats to perceive tape, Day 7 / Time for rats to perceive tape, Day 10 / Time for rats to perceive tape, Day 14 / Time of removing tape, Day 1 / Time of removing tape, Day 4 / Time of removing tape, Day 7 / Time of removing tape, Day 10 / Time of removing tape, Day 14: cut-off 60 s
Procedure: as §1, §2
Rats were trained in adhesion experiments for one week before modeling, and those that could successfully tear off the tape within 10 s were screened for modeling. After 2 h of modeling by the filament technique, the rats were immediately administered with the drug according to the grouped administration plan. Thereafter, the rats were continued to be administered with the drug once a day for 14 days, and adhesion experiments were performed on days 1, 4, 7, 10, and 14 to assess sensory and motor nerve function. The specific operation was as follows. A circular tape with a diameter of about 12 mm was adhered to the plantar surface of the left forelimb of the rat, and the sensation and removal time of the tape was recorded. If the mice were unable to perceive and/or remove the tape within 60 s, 60 s were recorded.

[3] = tested on: Parkinson's disease (PD) mice, 6-OHDA method; assay: 6-OHDA Parkinson's disease mice, hanging experiment; type: in vivo, C57 mice; conditions: Group D, CTMB 20 mg/kg ip, cut-off 60 s
Procedure: The mice were randomly divided into a sham operation group (group S, given a blank emulsion with a volume equal to that of the administered group), a model group (group M, given a blank emulsion with a volume equal to that of the administered group), a CTMB group (20 mg/kg, group D), and a levodopa group (levodopa: benserazide hydrochloride=4:1, 12 mg/kg, group L), each group included 10-12 mice, and all of them were administered intraperitoneally.
Preoperatively, mice were fasted for 12 h, and mice were anesthetized with 4% isoflurane induction and maintained with 1.5% isoflurane. The mice were subsequently immobilized on a brain stereotaxic apparatus. The bregma and lambda points were exposed by gently wiping the cranial surface with a cotton swab after cutting the scalp. The stereotaxic apparatus was adjusted to align the heights of the bregma and lambda points, thereby leveling the skull. The bregma point was designated as the origin, the coordinates where the injection site was located were located, and the drill was used to drill a small hole in the skull above the injection site.
6-OHDA (12.5 μg/μL) was injected into the striatum region (AP+0.5 mm; ML+2.00 mm; DV-3.00 mm and-2.00 mm) of the mice, and 1 μL 6-OHDA was injected into each of the two points at a rate of 0.5 μL/min. The needle was left in place for 3 min after the injection was completed, and then the injection needle was lifted, and the scalp of the mice was sutured and disinfected. The sham operation group was injected with an equal volume of saline containing 0.02% ascorbic acid, and other operations were performed as above. After the procedure, the mice were placed in the cage at an appropriate temperature. After awakening from anesthesia, the mice were kept normally.
The hanging experiment: normal mice have climbing activity, which requires proper grip strength and motor coordination, so the hanging experiment may be used to examine motor dysfunction in mice. A metal rod with a diameter of 1.5 mm was placed horizontally on top of the box, and a distance from the metal rod to the bottom of the box was 30 cm. […] Measurement was performed twice, with an interval of 1 min or more between each test, and the results were averaged over the two times.
The motor function of the mice was comprehensively assessed using the rod-climbing experiment and the hanging experiment at 1, 2, 3, and 4 weeks after drug administration.

[4] = CTMB-H 20 mg/kg ip once a day for 14 days
[5] = CTMB-L 10 mg/kg ip once a day for 14 days

For `COc1cc(OC)c(OC)cc1C=C1CCC1` [CTMB, 1-(cyclobutylidenemethyl)-2,4,5-trimethoxybenzene], the “toxic side effects associated with administration” value ([1]; 10 and 20 mg/kg ip once a day for 14 days) was “No toxic side effects”, the “mNSS score, Day 1” value [1, 4] was 5.69 ± 2.13^##, ** and the “mNSS score, Day 4” value [1, 4] was 3.75 ± 1.67^##, **. For the same compound, the “mNSS score, Day 7” value [1, 4] was 2.83 ± 1.17^##, *, the “mNSS score, Day 14” value [1, 4] was 2.45 ± 1.36^##, * and the “mNSS score, Day 1” value [1, 5] was 6.45 ± 2.37^##, *. For the same compound, the “mNSS score, Day 4” value [1, 5] was 3.65 ± 1.29^##, **, the “mNSS score, Day 7” value [1, 5] was 3.38 ± 0.83 and the “mNSS score, Day 14” value [1, 5] was 2.94 ± 1.56. The “toxic side effects associated with administration” value ([2]; 10 and 20 mg/kg ip once a day for 14 days, bonding test) was “No toxic side effects”, the “Time for rats to perceive tape, Day 1” value ([2]; CTMB-H 20 mg/kg ip once a day) was 31.17 ± 24.57^#^ s and the “Time for rats to perceive tape, Day 4” value ([2]; CTMB-H 20 mg/kg ip once a day) was 25.33 ± 23.41^#^ s. For the same compound, the “Time for rats to perceive tape, Day 7” value ([2]; CTMB-H 20 mg/kg ip once a day) was 20.50 ± 22.99^#^ s, the “Time for rats to perceive tape, Day 10” value ([2]; CTMB-H 20 mg/kg ip once a day) was 7.00 ± 4.56 s and the “Time for rats to perceive tape, Day 14” value ([2]; CTMB-H 20 mg/kg ip once a day) was 8.44 ± 11.94 s. The “Time of removing tape, Day 1” value ([2]; CTMB-H 20 mg/kg ip once a day) was 53.67 ± 16.66 s, the “Time of removing tape, Day 4” value ([2]; CTMB-H 20 mg/kg ip once a day) was 51.33 ± 17.14 s and the “Time of removing tape, Day 7” value ([2]; CTMB-H 20 mg/kg ip once a day) was 48.67 ± 16.55 s. For the same compound, the “Time of removing tape, Day 10” value ([2]; CTMB-H 20 mg/kg ip once a day) was 31.11 ± 19.76 s, the “Time of removing tape, Day 14” value ([2]; CTMB-H 20 mg/kg ip once a day) was 33.22 ± 23.03 s and the “Time for rats to perceive tape, Day 1” value ([2]; CTMB-L 10 mg/kg ip once a day) was 42.25 ± 25.53 s. The “Time for rats to perceive tape, Day 4” value ([2]; CTMB-L 10 mg/kg ip once a day) was 27.50 ± 28.05 s, the “Time for rats to perceive tape, Day 7” value ([2]; CTMB-L 10 mg/kg ip once a day) was 28.20 ± 28.97^#^ s and the “Time for rats to perceive tape, Day 10” value ([2]; CTMB-L 10 mg/kg ip once a day) was 27.11 ± 30.06 s. For the same compound, the “Time for rats to perceive tape, Day 14” value ([2]; CTMB-L 10 mg/kg ip once a day) was 10.44 ± 12.44 s, the “Time of removing tape, Day 1” value ([2]; CTMB-L 10 mg/kg ip once a day) was 50.75 ± 17.65 s and the “Time of removing tape, Day 4” value ([2]; CTMB-L 10 mg/kg ip once a day) was 36.20 ± 24.17 s. For the same compound, the “Time of removing tape, Day 7” value ([2]; CTMB-L 10 mg/kg ip once a day) was 38.60 ± 26.15^#, * s, the “Time of removing tape, Day 10” value ([2]; CTMB-L 10 mg/kg ip once a day) was 26.63 ± 27.80 s and the “Time of removing tape, Day 14” value ([2]; CTMB-L 10 mg/kg ip once a day) was 26.22 ± 21.48 s. The “Hanging time, Before administration” value ([3]; baseline 2 weeks after 6-OHDA) was 45.5 ± 14.6 s, the “Hanging time, 1 week of administration” value [3] was 51.8 ± 14.1 s and the “Hanging time, 2 weeks of administration” value [3] was 56.8 ± 5.2 s. For the same compound, the “Hanging time, 3 weeks of administration” value [3] was 58.8 ± 2.8 s and the “Hanging time, 4 weeks of administration” value [3] was 57.6 ± 4.6 s.
